Results from patent publication US20150297594A1, “Combination of a 6-oxo-1,6-dihydro-pyridazine derivative having anti-cancer activity with a MEK inhibitor” (MERCK PATENT GMBH, priority 2012, published 2015).
Where “and” joins values, the source holds several entries; their conditions need not be identical. Identical values can stand only once.

Experiments:
[1] = system: human KP-4 pancreatic tumor cells; assay: human KP-4 pancreatic tumor xenograft model in nude mice; type: in vivo; settings: female BalBc nude mice, s.c. KP-4 tumors, 5 days on and 2 days off, end of treatment
Method: Method: Female BalBc nude mice (6-8 week old) where subcutaneously injected with human KP-4 pancreatic tumor cells and were divided into treatment groups (ten animals in one group) after the tumors were established.
Respective groups were administered orally with the 3-(1-{3-[5-(1-methyl-piperidin-4-ylmethoxy)-pyrimidin-2-yl]-benzyl}-6-oxo-1,6-dihydro-pyridazin -3-yl)-benzonitrile hydrochloride hydrate (100 mg/kg) or N-((S)-2,3-dihydroxy-propyl)-3-(2-fluoro-4-iodo-phenylamino)-isonicotinamide (50 mg/kg) for 5 days on and 2 days off in monotherapy or in combination. […] Statistical analysis has been done with one way ANOVA.

[2] = system: patient derived pancreatic tumor fragment; assay: 10 patient derived pancreatic tumor models in nude mice; type: in vivo, human
Protocol: Combination with MEK inhibitor N-((S)-2,3-dihydroxy-propyl)-3-(2-fluoro-4-iodo-phenylamino)-isonicotinamide in 10 patient derived pancreatic tumor models:
Method: Female NMRI nude mice (6-8 week old) where subcutaneously implanted with a patient derived pancreatic tumor fragment. Animals were divided into treatments groups (ten animals in one group) after the tumors were established. Respective groups were administered orally with the 3-(1-{3-[5-(1-methyl-piperidin-4-ylmethoxy)-pyrimidin-2-yl]-benzyl}-6-oxo -1,6-dihydro-pyridazin-3-yl)-benzonitrile hydrochloride hydrate (100 mg/kg) or N-((S)-2,3-dihydroxy-propyl)-3-(2-fluoro-4-iodo-phenylamino)-isonicotinamide (100 mg/kg, MTD) for 5 days on and 2 days off in monotherapy or in combination. At the end of treatment TC values were calculated and tumor regrowth was observed. Statistical analysis has been done with one way ANOVO. […] All treatments were well tolerated.

Compound	TC value ([1]; monotherapy 100 mg/kg orally)	TC values ([2]; female NMRI nude mice; monotherapy 100 mg/kg orally, 5 days on and 2 days off; end of treatment; the models with anti-tumor activity; hydrochloride hydrate))	TC value ([1]; monotherapy 50 mg/kg orally)	TC values ([2]; female NMRI nude mice, monotherapy 100 mg/kg (MTD) orally, 5 days on and 2 days off, end of treatment, all 10 models)	models with anti-tumor activity ([2]; female NMRI nude mice, monotherapy 100 mg/kg orally, 5 days on and 2 days off, out of 10 models)
CN1CCC(COc2cnc(-c3cccc(Cn4nc(-c5cccc(C#N)c5)ccc4=O)c3)nc2)CC1.Cl.O [3-(1-{3-[5-(1-methyl-piperidin-4-ylmethoxy)-pyrimidin-2-yl]-benzyl}-6-oxo-1,6-dihydro-pyridazin-3-yl)-benzonitrile hydrochloride hydrate]	35%	43% and 50%			
O=C(NC[C@H](O)CO)c1ccncc1Nc1ccc(I)cc1F [N-((S)-2,3-dihydroxy-propyl)-3-(2-fluoro-4-iodo-phenylamino)-isonicotinamide]			42%	< 55%	10
